Experimental data published in patent EP4768471A1, “SIX-MEMBERED AND FIVE-MEMBERED FUSED RING DERIVATIVE, AND PREPARATION METHOD THEREFOR AND USE THEREOF” (Guangdong Hengqin Novagains Biopharmaceutical Co., Ltd., priority 2023, dated 2025).
Where two headings read alike, the source gives them in different places.

Columns and labels:
[1] = biological target: T1, human urate transporter 1 (hURAT1) (Homo sapiens, UniProt Q96S37); experiment: Inhibitory activity against urate transporter URAT1 (14C-uric acid uptake in Flp-In-T-REx-293-hURAT1 cells); assay type: cell-based
T1 construct: host or cells: Flp-In-T-REx-293 (HEK293-derived), doxycycline-induced
T1 sequence (Q96S37 1-553): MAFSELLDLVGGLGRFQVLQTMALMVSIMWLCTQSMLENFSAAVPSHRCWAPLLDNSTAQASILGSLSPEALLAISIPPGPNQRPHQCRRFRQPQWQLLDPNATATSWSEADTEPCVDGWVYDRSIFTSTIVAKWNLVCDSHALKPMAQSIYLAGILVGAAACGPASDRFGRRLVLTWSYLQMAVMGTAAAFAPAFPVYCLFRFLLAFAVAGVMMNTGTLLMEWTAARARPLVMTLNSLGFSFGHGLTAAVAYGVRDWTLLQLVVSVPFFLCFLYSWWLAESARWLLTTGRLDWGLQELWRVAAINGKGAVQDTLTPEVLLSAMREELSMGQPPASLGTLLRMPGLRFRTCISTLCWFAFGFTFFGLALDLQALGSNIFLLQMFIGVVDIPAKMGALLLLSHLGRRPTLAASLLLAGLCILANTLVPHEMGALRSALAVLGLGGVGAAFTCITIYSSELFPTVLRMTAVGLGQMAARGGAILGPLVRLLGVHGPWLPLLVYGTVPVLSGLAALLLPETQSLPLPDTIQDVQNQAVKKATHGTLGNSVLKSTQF
Protocol: Inhibitory activity of each compound against urate transporter URAT1 was tested. Compounds: the compounds of the present disclosure were prepared according to the methods in examples; Verinurad was purchased commercially; and CDER167 was prepared according to the method described in the literature (doi: 10.1038/s41401-021-00640-5). Cells: Flp-In-T-REx-293-hURAT1 cells capable of expressing human urate transporter 1 (hURAT1), were purchased from Pharmaron Beijing Co., Ltd., China or can be generated (e.g., by transfecting hURAT1 genes into commercially available Flp-In-T-REx-293 cells according to the method described in the literature doi: 10.1124/dmd.106.012187, and the expression of the hURAT1 genes can be verified by methods such as Western blotting). [drawing 76] The Flp-In-T-REx-293-hURAT1 cells were cultured in a Dulbecco's Modified Eagle Medium (DMEM) in 75 cm^2 flasks under 5% CO2 and 37°C, and passaged every two days. […] The cells were resuspended in the DMEM and then counted, and subsequently prepared into a cell suspension with a proper density. The cells were seeded into a 96-well plate and cultured in a 37°C and 5% CO2 incubator for 24 h. The culture medium was removed, and DMEM containing 200 ng/mL doxycycline was added. The cells were then placed back into the 37°C and 5% CO2 incubator and cultured for 18 h. The test compounds were serially diluted 3-fold in DMSO starting from 10 mmol/L to prepare 10 stock solutions at varying concentrations. A buffer solution was prepared, which contained 125 mmol/L sodium gluconate, 4.8 mmol/L potassium gluconate, 5.6 mmol/L glucose, 1.2 mmol/L potassium dihydrogen phosphate, 1.2 mmol/L magnesium sulfate, 1.3 mmol/L calcium gluconate and 25 mmol/L HEPES (pH = 7.4). 1.2 µL of each test compound stock solution was mixed with 119 µL of buffer to form an assay buffer. After induction for 16 h, the culture medium was removed, and the cells were washed with a prewarmed buffer and incubated for 10 min at 37°C. The buffer was then removed, and an assay buffer containing 50 µmol/L ^14C-uric acid and the test compound was added to the cells, and then the cells were incubated at 37°C for 5 min. The buffer was removed, the cells were washed three times with a precool buffer. Subsequently, 100 mmol/L NaOH was added to lyse the cells for 20 min. The lysate was transferred to a 96-well plate, and then 200 µL of UltimaGold XR scintillation cocktail was added, and radioactivity was measured using a MicroBeta^2 (PerkinElmer). The half-maximal inhibitory concentration (IC50) of each test compound was calculated via GraphPad Prism 8 software using a nonlinear regression fitting equation. The IC50 values were categorized by the following grades: […] Table 2 Inhibitory activity (IC50) of some compounds in the present disclosure against urate transporter

ICR mice = experiment: Toxicity test: 28-day repeated administration in mice, histopathological examination of liver and kidney; details: intragastric gavage 200 mg/kg once daily for 28 consecutive days, 8 mice per group
Protocol: The toxicity of each compound was evaluated following 28-day repeated administration in mice.
Method: ICR mice that passed quarantine were selected, with equal numbers of males and females. The mice were randomly grouped based on body weight and sex, with 8 mice per group. The test compounds included the compounds of the present disclosure and a positive drug Verinurad. The test compounds were administered to the animals via intragastric gavage at a dosage of 200 mg/kg, once daily for 28 consecutive days. Detailed clinical observations were performed after each administration, with at least 2 h observation following the first administration or upon detection of abnormalities. In addition, cage-side observations were conducted once daily in the afternoon. Observations included clinical signs (animal appearance, behavior, diet, response to stimuli, secretions and excretions) and mortality (time of death or time of discovery of death, pre-mortem signs, etc.). In addition, the symptoms of animals, and the onset, severity, and duration of any observed clinical symptoms of animals were recorded. On Day 28 of administration, the mice were euthanized immediately after blood collection was completed and subjected to necropsy. Livers and left kidneys were collected for paraffin embedding, sectioning and hematoxylin-eosin (HE) staining, followed by histopathological examination to observe tissue lesions. Special attention was paid to the degeneration and inflammatory changes in glomeruli and renal tubules, as well as the presence of urea crystals. The animals euthanized due to found moribund or the animals dead during the experiment were subjected to necropsy promptly.

[2] = Flp-In-T-REx-293-hURAT1 cells, 50 µmol/L 14C-uric acid, 5 min at 37°C, read-out: IC50

CC(C)(Sc1ccncc1Cc1ccc(C#N)c2ccccc12)C(=O)O [CDER167, reference compound]
IC50 [1, 2]: > 1000 nM

CC(C)(Sc1ccccc1Cn1cc(C#N)c2ccccc21)C(=O)O [Compound F-02]
IC50 [1]: 100 to 500 nM
hepatic or renal toxicity upon histopathological examination (ICR mice): no hepatic or renal toxicity

CC(C)(Sc1ccccc1Cn1cc(C#N)c2cnccc21)C(=O)O [Compound F-05]
IC50 [1, 2]: < 100 nM
hepatic or renal toxicity upon histopathological examination (ICR mice): no hepatic or renal toxicity

CC(C)(Sc1ccccc1Cn1cc(C#N)c2cccnc21)C(=O)O [Compound F-07]
IC50 [1]: < 100 nM
hepatic or renal toxicity upon histopathological examination (ICR mice): no hepatic or renal toxicity

CC(C)(Sc1ccccc1Cn1cc(C#N)c2cncnc21)C(=O)O [Compound F-08]
IC50 [1, 2]: 100 to 500 nM
hepatic or renal toxicity upon histopathological examination (ICR mice): no hepatic or renal toxicity

CC(C)(Sc1ccc(F)cc1Cn1cc(C#N)c2ccccc21)C(=O)O [Compound F-09]
IC50 [1]: 100 to 500 nM
hepatic or renal toxicity upon histopathological examination (ICR mice): no hepatic or renal toxicity

CC(C)(Sc1ccc(Cl)cc1Cn1cc(C#N)c2ccccc21)C(=O)O [Compound F-10]
IC50 [1, 2]: 100 to 500 nM
hepatic or renal toxicity upon histopathological examination (ICR mice): no hepatic or renal toxicity

CC(C)(Sc1ccc(Br)cc1Cn1cc(C#N)c2ccccc21)C(=O)O [Compound F-11]
IC50 [1, 2]: 100 to 500 nM
hepatic or renal toxicity upon histopathological examination (ICR mice): no hepatic or renal toxicity

Cc1ccc(SC(C)(C)C(=O)O)c(Cn2cc(C#N)c3ccccc32)c1 [Compound F-12]
IC50 [1]: 100 to 500 nM
hepatic or renal toxicity upon histopathological examination (ICR mice): no hepatic or renal toxicity

COc1ccc(SC(C)(C)C(=O)O)c(Cn2cc(C#N)c3ccccc32)c1 [Compound F-13]
IC50 [1, 2]: 100 to 500 nM
hepatic or renal toxicity upon histopathological examination (ICR mice): no hepatic or renal toxicity

CC(C)(Sc1ccccc1Cn1cc(C#N)c2c(F)cccc21)C(=O)O [Compound F-14]
IC50 [1]: 100 to 500 nM
hepatic or renal toxicity upon histopathological examination (ICR mice): no hepatic or renal toxicity

CC(C)(Sc1ccccc1Cn1cc(C#N)c2ccc(F)cc21)C(=O)O [Compound F-16]
IC50 [1]: 100 to 500 nM
hepatic or renal toxicity upon histopathological examination (ICR mice): no hepatic or renal toxicity

CC(C)(Sc1ccccc1Cn1cc(C#N)c2cccc(F)c21)C(=O)O [Compound F-17]
IC50 [1]: 100 to 500 nM
hepatic or renal toxicity upon histopathological examination (ICR mice): no hepatic or renal toxicity

N#Cc1cn(Cc2ccccc2SC2(C(=O)O)CCC2)c2ncccc12 [Compound F-20]
IC50 [1]: 100 to 500 nM
hepatic or renal toxicity upon histopathological examination (ICR mice): no hepatic or renal toxicity

N#Cc1cn(Cc2cc(F)ccc2SC2(C(=O)O)CCC2)c2ncccc12 [Compound F-26]
IC50 [1]: 100 to 500 nM
hepatic or renal toxicity upon histopathological examination (ICR mice): no hepatic or renal toxicity

N#Cc1cn(Cc2cc(Cl)ccc2SC2(C(=O)O)CCC2)c2ncccc12 [Compound F-27]
IC50 [1, 2]: 100 to 500 nM
hepatic or renal toxicity upon histopathological examination (ICR mice): no hepatic or renal toxicity

N#Cc1cn(Cc2cc(Br)ccc2SC2(C(=O)O)CCC2)c2ncccc12 [Compound F-28]
IC50 [1, 2]: 100 to 500 nM
hepatic or renal toxicity upon histopathological examination (ICR mice): no hepatic or renal toxicity

COc1ccc(SC2(C(=O)O)CCC2)c(Cn2cc(C#N)c3cccnc32)c1 [Compound F-30]
IC50 [1, 2]: 100 to 500 nM
hepatic or renal toxicity upon histopathological examination (ICR mice): no hepatic or renal toxicity

CC(C)(Sc1ccncc1-c1ccc(C#N)c2ccccc12)C(=O)O [Verinurad, reference compound]
IC50 [1, 2]: 500 to 1000 nM
renal toxicity (number of mice affected) (ICR mice): 3 out of 8
renal toxicity (percentage of mice affected) (ICR mice): 37.5%
